We go through two molecules from US20100210590A1, “COMPOSITIONS AND TREATMENTS FOR SEIZURE-RELATED DISORDERS” (NORTHWESTERN UNIVERSITY, priority 1995, published 2010).

The structures appear in SMILES notation. Structures can show the parent of a compound that is named as a salt.

The nature of series [1]: Solubility (logS experimental, aqueous solubility, DMSO). The series is classed as physicochemical.
For series [2] the following is noted: cited from earlier work.
The subject of series [3] is TNF-α. Nature of the series: ELISA of hippocampal homogenates after KA-induced seizures on P15: TNF-α. The series is classed as in vivo, rat. The note with it: Mzc 5 mg/kg ip at 3 and 9 hr after KA on P15; 12 hr recovery; mean±SEM. As to the method: (§1) Hippocampal homogenates were prepared by sonication in protease inhibitor cocktail (1 μg leupeptin (Sigma, St. Louis, Mo.), 0.001 M 4-dithio-L-threitol (DTT, Sigma), 0.002 M sodium orthovanadate (Sigma) and 0.001 M phenylmethanesulfonyl fluorid (PMSF, FLUKA, Switzerland) in 1 ml PBS). Total protein concentration was measured using commercially available reagents (BCA, Pierce, Rockford, Ill.).
(§2) Levels of IL-1β, IL-6, and TNF-α, were measured in hippocampal homogenates by enzyme linked immunosorbent assay using commercially available plates and reagents (ELISA; MesoScale Discovery, MSD, Gaithersburg, Md.). S100B levels were measured as described (26). Samples were analyzed in duplicates and compared with known concentrations of protein. Plates were analyzed using the SECTOR Imager 2400 (MSD).
(§3) To determine whether suppression of early cytokine increases would prevent long-term glial activation and improve neurobehavioral outcome after early-life seizures, P15 rats were administered Minozac (Mzc). […] Mzc (5 mg/kg) or diluent (saline) was administered via ip injection at 3 and 9 hr following KA injection on P15 (FIG. 7). Control animals were injected an equal volume of saline (Sal). At 12 hr, animals were sacrificed, and tissues were processed for analysis of pro-inflammatory cytokines by ELISA as above.
For orientation: An ELISA detects its analyte on a solid surface through an enzyme-linked reagent.

The subject of series [4] is Alzheimer's disease mouse model. Particulars: cited from earlier work.
Series [5] concerns GFAP. Nature of the series: Immunohistochemical quantification of GFAP immunoreactive cells in hippocampus (glial activation). In kind it is in vivo, rat. The note with it: Mzc 5 mg/kg ip at 3 and 9 hr after KA on P15; 30 days recovery; mean±SEM. The procedure: (§4) Immunohistochemical detection of hippocampal markers of glial activation and astrocyte glutamate transporters was performed in five μm paraffin-embedded sections using Vectastain Elite ABC immunodetection kits and diaminobenzidine substrate (DAB) (Vector Laboratories, Burlingame Calif.). The following primary antibodies were used: GFAP (1:1500, mouse monoclonal, Sigma); S100B (1:1500, rabbit polyclonal, DAKO Cytomation, Carpinteria, Calif.); Ibal (1:400, goat polyclonal, Abcam, Cambridge, Mass.); FH (1:400, goat polyclonal, Quidel); β-clusterin (1:100, goat polyclonal, Santa Cruz); GLAST (1:5000 guinea pig polyclonal, Chemicon International, Temecula, Calif.) and GLT-1 (1:5000, guinea pig polyclonal, Chemicon). Control sections were incubated in normal serum or PBS in place of primary antibody. […]
(§5) Sections were examined under brightfield microscopy by two blinded observers (Nikon Eclipse E800). For GFAP, S100B, Ibal, FH, clusterin, GLAST and GLT-1 sections, the CAI, CA2, CA3, DG and PoDG were photographed at 10× magnification, and images were converted to grayscale for quantification of immunoreactive cells. The percentage of positive cells in the hippocampal regions specified was measured by thresholding for dark objects indicative of immunoreactive cells (Metamorph, Universal Imaging Corporation, Sunnyvale, Calif.). […] Changes in the morphology of immunoreactive cells were not assessed. […]

The test system of series [6] is IL-1β. The series is described as follows: ELISA of hippocampal homogenates after KA-induced seizures on P15: IL-1β. In kind it is in vivo, rat. The note with it: Mzc 5 mg/kg ip at 3 and 9 hr after KA on P15; 12 hr recovery; mean±SEM. As to the method:
as §1, §2, §3

The test system of series [7] is IL-6. Nature of the series: ELISA of hippocampal homogenates after KA-induced seizures on P15: IL-6. Particulars: Mzc 5 mg/kg ip at 3 and 9 hr after KA on P15; 12 hr recovery; mean±SEM. The series is classed as in vivo, rat. As to the method:
as §1, §2, §3

For series [8], the system named is KA-induced seizures on P15. Nature of the series: Y-maze test of spontaneous alternation after KA-induced early-life seizures. In kind it is in vivo, rat. The note with it: Mzc 5 mg/kg ip at 3 and 9 hr after KA on P15; after 30 days recovery; mean±SEM. As to the method:
On either postnatal day (P)15 or 45, rats were administered either KA (Ocean Produce International, Nova Scotia) or equivalent volume of vehicle, phosphate-buffered saline (PBS, pH 7.4) (2). The dose of KA on P 15 (5 mg/kg) and P45 (15 mg/kg) was based on the age-dependent difference in threshold for KA-induced seizures (22). All injections were intraperitoneal (ip).
The Y-maze test of spontaneous alternation was used to evaluate hippocampus-dependent spatial learning (26, 27). Testing began on P27 when animals were first able to decide between the left or right arm of the maze. Testing was performed by a blinded observer on alternate days until P55. Each animal started in the vertical arm of the Y-maze. If the animal selected a different arm on the second run in the maze, it was scored as alternating. The percent alternation over the duration of testing was calculated for each animal.
To determine whether suppression of early cytokine increases would prevent long-term glial activation and improve neurobehavioral outcome after early-life seizures, P15 rats were administered Minozac (Mzc). […] Mzc (5 mg/kg) or diluent (saline) was administered via ip injection at 3 and 9 hr following KA injection on P15 (FIG. 7). Control animals were injected an equal volume of saline (Sal). […]

Series [9] relates to S100B. The series is described as follows: Immunohistochemical quantification of S100B immunoreactive cells in hippocampus (glial activation). Particulars: Mzc 5 mg/kg ip at 3 and 9 hr after KA on P15; 30 days recovery; mean±SEM. In kind it is in vivo, rat. The procedure:
as §4, §5

Series [10] concerns S100B. The series is described as follows: S100B level in hippocampal homogenates after KA-induced seizures on P15. In kind it is in vivo, rat. Particulars: Mzc 5 mg/kg ip at 3 and 9 hr after KA on P15; 12 hr recovery; mean±SEM. The procedure:
as §1, §2, §3

Take `Cc1cc(-c2ccccc2)nnc1N1CCN(c2ncccn2)CC1.Cl.Cl` [2-(4-(4-methyl-6-phenylpyridazin-3-yl)piperazin-1-yl)pyrimidine dihydrochloride salt]: in series [1], the “solubility in DMSO” value was “soluble in DMSO”.
For the molecule `Cc1cc(-c2ccccc2)nnc1N1CCN(c2ncccn2)CC1` [Mzc, 2-(4-(4-methyl-6-phenylpyridazin-3-yl)piperazin-1-yl)pyrimidine dihydrochloride monohydrate], in [2], the CNS penetration result is “CNS-penetrant”, the bioavailability entry is reported as “bioavailable”, the toxicity entry is recorded as “non-toxic” and the water solubility result is listed as “water-soluble”. Moreover, the “TNF-α level in hippocampal brain homogenates” value in series [3] came out at 98.5±3.9 % control. Moreover, in [4], the “effect on hippocampal pro-inflammatory cytokine upregulation” value is reported as “inhibits hippocampal pro-inflammatory cytokine upregulation”, the “effect on hippocampal-dependent behavioral deficits” value was “attenuates hippocampal-dependent behavioral deficits” and the “effect on synaptic dysfunction” value is “suppresses synaptic dysfunction”. Further, the “GFAP immunoreactive cells in hippocampus” value in series [5] came out at 20.9±1.8 % immuno-positive cells. Moreover, in [6], the “IL-1β level in hippocampal brain homogenates” value was 103.7±4.6 % control. Also, the “IL-6 level in hippocampal brain homogenates” value in series [7] turned out to be 103.2±3.8 % control. Also, the “percent alternation in Y-maze” value in series [8] stood at 79.5±2.5 % alternation. The “S100B immunoreactive cells in hippocampus” value in series [9] is listed as 8.1±0.9 % immuno-positive cells. The “S100B level in hippocampal brain homogenates” value in [10] is 89.1±9.7 % control.
